This note sets out measurements from ChEMBL document CHEMBL5252512, “Recent Progress in the Development of HIV-1 Protease Inhibitors for the Treatment of HIV/AIDS” (J Med Chem, 2016).

Where a SMILES comes first, the peptide text is derived from it. Bridges are numbered along the chain shown (N, C = ends). Roman numbers before positions name the chains, in order. [ ]: non-standard residue; d: D form. The star is where a group is joined. ξ: configuration not given here. C16 diacid = O=C(O)CCCCCCCCCCCCCCC(=O)*; Phe(4-NH2) = Nc1ccc(C[C@H](N)C(=O)O)cc1; Ile(3ξ) = CCC(C)[C@H](N)C(=O)O; NHPhenethyl = c1ccc(CCN*)cc1

Experiment [1] relates to Human immunodeficiency virus 1. In words: Antiviral activity against wild type HIV1 ERS104pre infected in human PBMC cells assessed as inhibition of virus-induced cytopathic effect measured after 7 days by MTT assay. Format: functional, organism-based. Particulars: Human immunodeficiency virus 1, ERS104pre, 168 h. On the technique in general: Damage to the host cells serves as the signal in cytopathic effect assays.

Experiment [2] has as its system Human immunodeficiency virus 1. The experiment is described as follows: Antiviral activity against multidrug-resistant HIV1-TM infected in phytohemagglutinin-activated human PBMC cells assessed as inhibition of virus-induced cytopathic effect measured after 7 days by MTT assay. Format: functional, organism-based. The conditions noted are these: Human immunodeficiency virus 1, TM, 168 h.

The subject of experiment [3] is Human immunodeficiency virus 1. The experiment is described as follows: Antiviral activity against multidrug-resistant HIV1-MM infected in phytohemagglutinin-activated human PBMC cells assessed as inhibition of virus-induced cytopathic effect measured after 7 days by MTT assay. Format: functional, organism-based. The conditions noted are these: Human immunodeficiency virus 1, MM, 168 h.

The test system of experiment [4] is Human immunodeficiency virus 1. The experiment is described as follows: Antiviral activity against multidrug-resistant HIV1-JSL infected in phytohemagglutinin-activated human PBMC cells assessed as inhibition of virus-induced cytopathic effect measured after 7 days by MTT assay. Format: functional, organism-based. Particulars: Human immunodeficiency virus 1, JSL, 168 h.

Experiment [5] concerns Human immunodeficiency virus 1. In words: Antiviral activity against multidrug-resistant HIV1-B infected in phytohemagglutinin-activated human PBMC cells assessed as inhibition of virus-induced cytopathic effect measured after 7 days by MTT assay. The conditions noted are these: Human immunodeficiency virus 1, B, 168 h. The format is functional, organism-based.
Experiment [6] has as its system Human immunodeficiency virus 1. The experiment is described as follows: Antiviral activity against multidrug-resistant HIV1-C infected in phytohemagglutinin-activated human PBMC cells assessed as inhibition of virus-induced cytopathic effect measured after 7 days by MTT assay. The conditions noted are these: Human immunodeficiency virus 1, C, 168 h. Format: functional, organism-based.

Experiment [7] deals with Human immunodeficiency virus 1. The experiment is described as follows: Antiviral activity against multidrug-resistant HIV1-G infected in phytohemagglutinin-activated human PBMC cells assessed as inhibition of virus-induced cytopathic effect measured after 7 days by MTT assay. Format: functional, organism-based. The conditions noted are these: Human immunodeficiency virus 1, G, 168 h.

In experiment [8] the test system is Human immunodeficiency virus 1. The experiment is described as follows: Ratio of EC50 for antiviral activity against HIV1-TM to EC50 for antiviral activity against wild type HIV1 ERS104pre. Format: functional.
Experiment [9] relates to Human immunodeficiency virus 1. In words: Ratio of EC50 for antiviral activity against HIV1-MM to EC50 for antiviral activity against wild type HIV1 ERS104pre. The format is functional.
Experiment [10] deals with Human immunodeficiency virus 1. In words: Ratio of EC50 for antiviral activity against HIV1-JSL to EC50 for antiviral activity against wild type HIV1 ERS104pre. Format: functional.
Experiment [11] has as its system Human immunodeficiency virus 1. The experiment is described as follows: Ratio of EC50 for antiviral activity against HIV1-B to EC50 for antiviral activity against wild type HIV1 ERS104pre. Format: functional.
Experiment [12] deals with Human immunodeficiency virus 1. In words: Ratio of EC50 for antiviral activity against HIV1-C to EC50 for antiviral activity against wild type HIV1 ERS104pre. The format is functional.
The subject of experiment [13] is Human immunodeficiency virus 1. In words: Ratio of EC50 for antiviral activity against HIV1-G to EC50 for antiviral activity against wild type HIV1 ERS104pre. Format: functional.
Experiment [14] deals with T1, Human immunodeficiency virus type 1 protease (Human immunodeficiency virus 1, UniProt Q72874). The experiment is described as follows: Binding affinity to wild-type HIV1 protease expressed in Escherichia coli by fluorometric assay.
The target in experiment [15] is T1, Human immunodeficiency virus type 1 protease. The experiment is described as follows: Inhibition of recombinant HIV1 Protease.
For experiment [16] the target is unchanged. The experiment is described as follows: Binding affinity to HIV1 protease assessed as inhibition constant.
For experiment [17], the system named is Human immunodeficiency virus 1. The experiment is described as follows: Antiviral activity against darunavir-resistant HIV1 10P infected in phytohemagglutinin-activated human PBMC cells assessed as inhibition of virus-induced cytopathic effect measured after 7 days by MTT assay. Format: functional, organism-based. Particulars: Human immunodeficiency virus 1, 10P, 168 h.

Experiment [18] deals with Human immunodeficiency virus 1. In words: Antiviral activity against darunavir-resistant HIV1 20P infected in phytohemagglutinin-activated human PBMC cells assessed as inhibition of virus-induced cytopathic effect measured after 7 days by MTT assay. Format: functional, organism-based. The conditions noted are these: Human immunodeficiency virus 1, 20P, 168 h.
The test system of experiment [19] is Human immunodeficiency virus 1. The experiment is described as follows: Antiviral activity against HIV1 LAI infected in human MT2 cells assessed as inhibition of virus-induced cytopathic effect by MTT assay. The format is functional, organism-based. Particulars: Human immunodeficiency virus 1, LAI.

As usually defined, the EC50 is the concentration at which the effect is half-maximal. The Ki is a dissociation constant, usually derived from enzyme kinetics or from competition with a known ligand. A word on the IC50: it is the concentration needed to halve the response being measured.

For the compound `CC(C)CN(C[C@@H](O)[C@H](Cc1ccccc1)NC(=O)O[C@H]1CO[C@H]2OCC[C@H]21)S(=O)(=O)c1ccc2c(c1)OCO2`, the EC50 is 0.5 nM in experiment [1]; 3.2 nM in experiment [2]; 3.8 nM in experiment [3]; 6 nM in experiment [4]; 3.9 nM in experiment [5]; 2.7 nM in [6]. For the same compound, the EC50 in [7] is 3.4 nM. Also, the “Ratio EC50” value in experiment [8] is 6; in experiment [9], 8; in experiment [10] it was 12; in experiment [11], 8; in [12], 5; in experiment [13], 7.

For the compound `O=C(Cc1cccc2ccccc12)Nc1ccccc1CN1C[C@H](O)[C@@H](O)CN(Cc2ccccc2)S1(=O)=O`, the affinity in experiment [14], expressed as Ki, was 140 nM.

With `CC(C)C[C@H](NC(=O)[C@@H](NC(=O)CCCCCCCCCCCCCCC(=O)N[C@@H](CC(N)=O)C(=O)N[C@@H](Cc1ccccc1)C(=O)O)[C@@H](C)O)C(=O)NCCc1cccc(O)c1`, the IC50 in [15] stood at 1130 nM.

Turning to `COC(=O)[C@@H](NC(=O)[C@H](CC(C)C)NC(=O)[C@@H](NC(=O)CCCOc1ccc2ccc(OCCCC(=O)N[C@H](CCCCNC(=O)OCc3ccccc3)C(=O)NNC(=O)c3cc(NC(C)=O)ccc3OC)cc2c1)C(C)C)C(C)C`, the Ki in [16] came out at 60 nM.

Take `O=C1C[C@@H](NC(=O)[C@H](OCc2cccc(Br)c2)[C@H](O)[C@@H](O)[C@@H](OCc2cccc(Br)c2)C(=O)N[C@H]2c3ccccc3C[C@H]2O)c2ccccc21`: the Ki in experiment [16] came out at 19 nM.

As to `COc1ccc(S(=O)(=O)N(CC(C)C)C[C@@H](O)[C@H](Cc2ccccc2)n2cc(CNC(=O)c3ccc(CNC(=O)OC(C)(C)C)cc3)nn2)cc1`, in [16], the Ki came out at 4 nM. The IC50 in experiment [15] is 13 nM.

Regarding `CCC(C)[C@H](NC(=O)[C@H](CCSC)NC(=O)CCCCCCCCCCCCCCC(=O)N[C@@H](CC(N)=O)C(=O)N[C@@H](Cc1ccccc1)C(=O)O)C(=O)N[C@@H](Cc1ccc(N)cc1)C(N)=O` (stereo partly drawn) ({Phe-Asn-C16 diacid}-Met-[Ile(3ξ)]-[Phe(4-NH2)]-NH2), the Ki in experiment [16] turned out to be 85 nM.

For `CC(C)C[C@H](NC(=O)[C@@H](NC(=O)CCCCCCCCCCCCCCC(=O)N[C@@H](CC(N)=O)C(=O)N[C@@H](Cc1ccccc1)C(=O)O)[C@@H](C)O)C(=O)NCCc1ccc(N)cc1`, the IC50 in [15] is 650 nM.

For the compound `CCC(C)N(CC(=O)N(CC(N)=O)Cc1ccc(N)cc1)C(=O)CN(CCSC)C(=O)CCCCCCCCCCCCCCC(=O)N(CC(N)=O)CC(=O)N(CC(=O)O)Cc1ccccc1` (centres undefined), the Ki in experiment [16] worked out at 801 nM.

As for `O=C(Cc1cccc2ccccc12)Nc1ccccc1CN1C[C@H](O)[C@@H](O)CN(Cc2ccccc2Br)S1(=O)=O`, in [14], the Ki turned out to be 280 nM.

`COC(=O)[C@@H](NC(=O)[C@H](CC(C)C)NC(=O)[C@@H](NC(=O)CCCOc1ccc2ccc(OCCCC(=O)N[C@H](CCCCNC(=O)OCc3ccccc3)C(=O)Nc3cccn(CC(N)=O)c3=O)cc2c1)C(C)C)C(C)C`: in experiment [16], the Ki was 40 nM.

As for `C[C@H](Cc1cc2c(cc1O)OCO2)[C@H](C)Cc1cc2c(cc1O)OCO2`, the IC50 in experiment [15] was found to be 5600 nM.

`COc1ccc(S(=O)(=O)N(CC(C)C)C[C@@H](O)[C@H](Cc2ccccc2)NC(=O)O[C@H]2CO[C@H]3C[C@@H]4OCC[C@@H]4[C@H]32)cc1`: the Ki in [16] came to 1.39 nM.

Turning to `NC(=O)CN(Cc1ccc(N)cc1)C(=O)CN(CC1CCCCC1)C(=O)CN(Cc1ccc(N)cc1)C(=O)CCCCCCCCCCCCCCC(=O)N(CC(=O)N(CC(=O)O)Cc1ccccc1)Cc1ccc(N)cc1`, the Ki in [16] was 135 nM.

With `CC(C)C[C@H](NC(=O)[C@@H](NC(=O)CCCCCCCCCCCCCCC(=O)N[C@@H](CC(N)=O)C(=O)N[C@@H](Cc1ccccc1)C(=O)O)[C@@H](C)O)C(=O)NCCc1ccccc1` (I: Asn-Phe-OH / II: Thr-Leu-NHPhenethyl; linker I:N-II:N via C16 diacid), the IC50 in [15] came to 5800 nM.

Compound `O=S1(=O)N(Cc2ccccc2-c2cc3ccccc3o2)C[C@H](O)[C@@H](O)CN1Cc1ccccc1-c1cc2ccccc2o1` registered an inhibitory constant (Ki) in experiment [14] of 530 nM.

As to `Cc1c(O)cccc1C(=O)N[C@@H](CSc1ccccc1)[C@H](O)CN1C[C@H]2CCCC[C@H]2C[C@H]1C(=O)NC(C)(C)C`, the EC50 in experiment [6] was found to be 250 nM.

For `COc1cccc2c1C(=O)C[C@H]2NC(=O)[C@H](OCc1cccc(Br)c1)[C@H](O)[C@@H](O)[C@@H](OCc1cccc(Br)c1)C(=O)N[C@H]1c2ccccc2C[C@H]1O`, the inhibition constant Ki in [16] was 11 nM.

For `COc1ccc(S(=O)(=O)N(CC(C)C)C[C@@H](O)[C@H](Cc2ccccc2)NC(=O)O[C@@H]2CO[C@@H]3O[C@H]4OCC[C@H]4[C@@H]32)cc1`, the half-maximal effective concentration (EC50) is 347 nM in experiment [1]; 530 nM in experiment [2]; 787 nM in [3]; above 1000 nM in experiment [4]; 612 nM in experiment [5]; 514 nM in [6]. The values for the EC50 in experiment [7], in experiment [17] and in [18] were 656 nM, above 1000 nM and above 1000 nM, respectively. Further, the “Ratio EC50” value was 2 in [8]; 2 in [9]; above 3 in experiment [10]; 2 in experiment [11]; 1 in experiment [12]; 2 in experiment [13].

On to `COc1ccc(S(=O)(=O)N(CC(C)C)C[C@@H](O)[C@H](Cc2ccccc2)n2cc(COC(=O)N[C@H]3c4ccccc4C[C@H]3O)nn2)cc1`, for which the Ki in experiment [16] was 1.7 nM. Besides, in experiment [15], the IC50 is 6 nM.

Consider `CC(C)C[C@H](NC(=O)[C@@H](NC(=O)CCCCCCCCCCCCCCC(=O)N[C@@H](CC(N)=O)C(=O)N[C@@H](Cc1ccccc1)C(=O)O)[C@@H](C)O)C(=O)NCCc1ccc(Oc2ccc(O)cc2)cc1`, for which the concentration for half-maximal inhibition (IC50) in experiment [15] turned out to be 96 nM.

In the case of `CC(C)(C)NC(=O)[C@@H]1C[C@@H]2CCCC[C@@H]2CN1C[C@@H](O)[C@H](Cc1ccccc1)NC(=O)[C@H](CC(N)=O)NC(=O)c1ccc2ccccc2n1`, the EC50 in experiment [1] came out at 4 nM; in experiment [2], 100 nM; in experiment [3], 110 nM; in experiment [4] it was 290 nM; in experiment [5], 270 nM; in experiment [6], 35 nM. Moreover, the EC50 in [7] is 33 nM.

In [14], `O=C(Cc1cccc2ccccc12)Nc1ccccc1CN1C[C@H](O)[C@@H](O)CN(Cc2ccccc2NC(=O)Cc2cccc3ccccc23)S1(=O)=O` gave a Ki of 20 nM.

In the case of `O=C(Cc1cccc2ccccc12)O[C@H]1CNC[C@@H]1OC(=O)Cc1cccc2ccccc12`, in [16], the Ki came out at 20000 nM.

Take `CC(C)CN(C[C@@H](O)[C@H](Cc1ccccc1)NC(=O)O[C@H]1CCOC1)S(=O)(=O)c1ccc(N)cc1`: the EC50 is 29 nM in [1]; 300 nM in experiment [2]; 270 nM in experiment [3]; 430 nM in experiment [4]; 360 nM in [5]; 210 nM in [6]. Moreover, the EC50 in [7] was 310 nM; in experiment [17] it was above 1000 nM; in experiment [18], above 1000 nM.

As to `COc1ccc(S(=O)(=O)N(CC(C)C)C[C@@H](O)[C@@H]2Cc3ccc(cc3)OC/C=C/CCc3c(O)cccc3C(=O)N2)cc1`, the Ki in experiment [16] is 0.2 nM. Besides, in [19], the IC50 stood at 210 nM.
